Assay results as given in ChEMBL document CHEMBL4229419, “Phosphorus-containing isothiocyanate-derived mercapturic acids as a useful alternative for parental isothiocyanates in experimental oncology” (Bioorg Med Chem Lett, 2018).
Active and inactive are the calls of the source. No cut-off for these calls is given here.

Legend:
[1] = Antiproliferative activity against human LoVo/DX cells after 72 hrs by SRB assay; type: functional, cell-based
LoVo [2] = assay: Antiproliferative activity against human LoVo cells after 72 hrs by SRB assay; type: functional, cell-based
MES-SA = assay: Antiproliferative activity against human MES-SA cells after 72 hrs by SRB assay; type: functional, cell-based
MES-SA/Dx5 = assay: Antiproliferative activity against human MES-SA/Dx5 cells after 72 hrs by SRB assay; type: functional, cell-based; conditions: MES-SA/Dx5, 72 h
BALB/3T3 = assay: Antiproliferative activity against mouse BALB/3T3 cells after 72 hrs by MTT assay; type: cell-based; conditions: BALB/3T3, 72 h
LoVo [3] = assay: Cell cycle arrest in human LoVo cells assessed as accumulation at G2/M phase at 15 uM after 24 hrs by propidium iodide staining based flow cytometry (reference value: 21%); type: functional
HL-60 = assay: Antiproliferative activity against human HL60 cells after 72 hrs by SRB assay; type: functional, cell-based; conditions: HL-60, 72 h
4T1 = assay: Antiproliferative activity against mouse 4T1 cells after 72 hrs by MTT assay; type: functional, cell-based; conditions: 4T1, 72 h
[4] = Resistance index, ratio of IC50 for antiproliferative activity against human HL60/MX2 cells to IC50 for antiproliferative activity against human HL60 cells; type: functional
LoVo [5] = assay: Induction of apoptosis in human LoVo cells assessed as caspase-3 activation at 15 uM after 24 hrs by Ac-DEVD-ACC substrate based fluorescence assay relative to control; type: functional
HL60/MX2 = assay: Antiproliferative activity against human HL60/MX2 cells after 72 hrs by SRB assay; type: functional, cell-based; conditions: HL60/MX2, 72 h

Structure (SMILES) | IC50 [1] | IC50 (LoVo [2]) | further results
CC(=O)N[C@@H](CSC(=S)NCCCCP(=O)(OC(C)C)OC(C)C)C(=O)O | 8.9 µM | 2600 nM | –
O=P(CCCCN=C=S)(c1ccccc1)c1ccccc1 | 2.2 µM | 2200 nM | –
CC(=O)N[C@@H](CSC(=S)NCCCCP(=O)(c1ccccc1)c1ccccc1)C(=O)O | 8.1 µM | 4400 nM | –
CC(=O)N[C@@H](CSC(=S)NCCCCCP(=O)(OC(C)C)OC(C)C)C(=O)O | 3.4 µM | 2400 nM | –
CC(=O)N[C@@H](CSC(=S)NCCP(=O)(c1ccccc1)c1ccccc1)C(=O)O | 7.7 µM | 2000 nM | –
O=P(CCN=C=S)(c1ccccc1)c1ccccc1 | 2.2 µM | 2000 nM | –
CC(=O)N[C@@H](CSC(=S)NCCCCCP(=O)(Oc1ccccc1)Oc1ccccc1)C(=O)O | 8 µM | 1900 nM | –
CC(=O)N[C@@H](CSC(=S)NCCCCCCP(=O)(OC(C)C)OC(C)C)C(=O)O | 3.4 µM | 1800 nM | IC50 (MES-SA): 9900 nM; IC50 (MES-SA/Dx5): 10.3 µM; IC50 (BALB/3T3): 10.9 µM; Activity (LoVo [3]): 24%; IC50 (HL-60): 600 nM; IC50 (4T1): 2500 nM; Ratio IC50 [4]: 5; fold change (FC) (LoVo [5]): 2.2; IC50 (HL60/MX2): 3000 nM
O=C1c2c(O)ccc(O)c2C(=O)c2c(NCCNCCO)ccc(NCCNCCO)c21 [MITOXANTRONE] | – | – | Ratio IC50 [4]: 37
COP(=O)(CCCCCCN=C=S)c1ccccc1 (configuration not stated) | 2.3 µM | 1800 nM | –
CCOP(=O)(CCCCNC(=S)SC[C@H](NC(C)=O)C(=O)O)OCC | 10 µM | 3300 nM | –
CCOC(OCC)P(=O)(CCCCCCN=C=S)OCC (configuration not stated) | 10.6 µM | 5100 nM | –
CC(=O)N[C@@H](CSC(=S)NCCCCCCP(=O)(c1ccccc1)c1ccccc1)C(=O)O | 8.1 µM | 2100 nM | –
COP(=O)(CCCCNC(=S)SC[C@H](NC(C)=O)C(=O)O)c1ccccc1 (some centres not stated) | 2.9 µM | 2700 nM | –
CC(=O)N[C@@H](CSC(=S)NCCCP(=O)(Oc1ccccc1)Oc1ccccc1)C(=O)O | 7.6 µM | 2000 nM | –
CC(=O)N[C@@H](CSC(=S)NCCP(=O)(OC(C)C)OC(C)C)C(=O)O | 8.1 µM | 5000 nM | –
CC(=O)N[C@@H](CSC(=S)NCc1ccccc1)C(=O)O | 15.4 µM | 11500 nM | Activity (LoVo [3]): 49%; fold change (FC) (LoVo [5]): >10
CCOC(OCC)P(=O)(CCCCN=C=S)OCC (configuration not stated) | 11.2 µM | 7000 nM | –
CCOP(=O)(CCCNC(=S)SC[C@H](NC(C)=O)C(=O)O)OCC | 2.5 µM | 2200 nM | –
COc1cccc2c1C(=O)c1c(O)c3c(c(O)c1C2=O)C[C@@](O)(C(=O)CO)C[C@@H]3O[C@H]1C[C@H](N)[C@H](O)[C@H](C)O1 [DOXORUBICIN] | – | – | IC50 (MES-SA): 160 nM; IC50 (MES-SA/Dx5): 16.2 µM
CCOP(=O)(CCCCNC(=S)SC[C@H](NC(C)=O)C(=O)O)c1ccccc1 (some centres not stated) | 3.5 µM | 2500 nM | –
CC(=O)N[C@@H](CSC(=S)NCCP(=O)(OCC(C)C)OCC(C)C)C(=O)O | 3.9 µM | 2200 nM | –
CCOP(=O)(CCCCCCN=C=S)c1ccccc1 (configuration not stated) | 4 µM | 2300 nM | –
CC(=O)N[C@@H](CSC(=S)NCCCCCP(=O)(c1ccccc1)c1ccccc1)C(=O)O | 4.3 µM | 1500 nM | –
CCOP(=O)(CCCNC(=S)SC[C@H](NC(C)=O)C(=O)O)c1ccccc1 (some centres not stated) | 3.4 µM | 2200 nM | –

Structure (SMILES) | IC50 [1] | IC50 (LoVo [2]) | further results
CC(=O)N[C@@H](CSC(=S)NCCCCP(=O)(OCC(C)C)OCC(C)C)C(=O)O | 9 µM | 3000 nM | –
CCOC(OCC)P(=O)(CCCCCNC(=S)SC[C@H](NC(C)=O)C(=O)O)OCC (some centres not stated) | 8.4 µM | 3000 nM | –
CCOP(=O)(CCCCN=C=S)c1ccccc1 (configuration not stated) | 4.1 µM | 2500 nM | –
COP(=O)(CCCCN=C=S)c1ccccc1 (configuration not stated) | 2.3 µM | 3100 nM | –
CC(=O)N[C@@H](CSC(=S)NCCCC[S+](C)[O-])C(=O)O (some centres not stated) | 14 µM | 20500 nM | Activity (LoVo [5]): Active
COP(=O)(CCCCCCNC(=S)SC[C@H](NC(C)=O)C(=O)O)c1ccccc1 (some centres not stated) | 2.8 µM | 2100 nM | –
CC(=O)N[C@@H](CSC(=S)NCCCCCP(=O)(OCC(C)C)OCC(C)C)C(=O)O | 8.8 µM | 2600 nM | –
CCOC(OCC)P(=O)(CCCCNC(=S)SC[C@H](NC(C)=O)C(=O)O)OCC (some centres not stated) | 11.3 µM | 6400 nM | –
CC(=O)N[C@@H](CSC(=S)NCCCP(=O)(OC(C)C)OC(C)C)C(=O)O | 8.5 µM | 3100 nM | –
CC(=O)N[C@@H](CSC(=S)NCCCCP(=O)(Oc1ccccc1)Oc1ccccc1)C(=O)O | 7.9 µM | 2200 nM | –
O=P(CCCCCCN=C=S)(c1ccccc1)c1ccccc1 | 3.1 µM | 2200 nM | –
COP(=O)(CCCCCNC(=S)SC[C@H](NC(C)=O)C(=O)O)c1ccccc1 (some centres not stated) | 2.6 µM | 2500 nM | –
CC(=O)N[C@@H](CSC(=S)NCCCP(=O)(OCC(C)C)OCC(C)C)C(=O)O | 17.9 µM | 19300 nM | –
CCOP(=O)(CCCCCNC(=S)SC[C@H](NC(C)=O)C(=O)O)OCC | 4 µM | 2200 nM | –
CCOP(=O)(CCCCCCNC(=S)SC[C@H](NC(C)=O)C(=O)O)c1ccccc1 (some centres not stated) | 2.2 µM | 1500 nM | IC50 (MES-SA): 2800 nM; IC50 (MES-SA/Dx5): 2.6 µM; IC50 (BALB/3T3): 7.9 µM; Activity (LoVo [3]): 22%; IC50 (HL-60): 400 nM; IC50 (4T1): 1900 nM; fold change (FC) (LoVo [5]): 2.8; IC50 (HL60/MX2): 700 nM
CCOP(=O)(CCNC(=S)SC[C@H](NC(C)=O)C(=O)O)OCC | 8 µM | 2200 nM | –
CC(=O)N[C@@H](CSC(=S)NCCP(=O)(Oc1ccccc1)Oc1ccccc1)C(=O)O | 9 µM | 3500 nM | –
CC(=O)N[C@@H](CSC(=S)NCCCP(=O)(c1ccccc1)c1ccccc1)C(=O)O | 5.6 µM | 4600 nM | –
CCOC(OCC)P(=O)(CCCCCCNC(=S)SC[C@H](NC(C)=O)C(=O)O)OCC (some centres not stated) | 10.4 µM | 3100 nM | –
CC(=O)N[C@@H](CSC(=S)NCCCCCCP(=O)(Oc1ccccc1)Oc1ccccc1)C(=O)O | 11.3 µM | 2500 nM | –
CCOP(=O)(CCCCCCNC(=S)SC[C@H](NC(C)=O)C(=O)O)OCC | 2.6 µM | 2200 nM | –
CCCCNC(=S)SC[C@H](NC(C)=O)C(=O)O | 224 µM | 201000 nM | –
CC(=O)N[C@@H](CSC(=S)NCCCCCCP(=O)(OCC(C)C)OCC(C)C)C(=O)O | 10.9 µM | 11100 nM | –
CCOP(=O)(CCCCCNC(=S)SC[C@H](NC(C)=O)C(=O)O)c1ccccc1 (some centres not stated) | 3.3 µM | 2000 nM | –
